We go through one cell line from the supplement of paper PMC10307832.

Test in all cases: relative viability (nuclei count vs DMSO), 5 days (fraction); higher = more cells survive
Compound in test [1]: C1/C(=C\C2=CC=CS2)/C(=O)/C(=C/C3=CC=CS3)/C1 + COc1cccc2cc(-c3nc([C@H]4CC[C@H](C(=O)O)CC4)n4ncnc(N)c34)[nH]c12 [OSI-027] (partner 0.5 µM)
In a few lines: (§1)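 Cells from lung cancer lines were seeded into 1536-well plates and, one day later, dosed by pin tool. Treatments were either a single drug or a fixed dose of an anchor drug with five library-drug doses (not always all listed) in √10 steps. After 5 days, nuclei were stained in a one-step fixation (final 0.05% Triton X-100, 1% formaldehyde, 1 ug/ml Hoechst) and counted on 4× images, and relative viability is the treated-to-vehicle nuclei ratio, as the median of duplicate plates.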

Compound in the test “TPCA-1 + Lapatinib”: C1=CC(=CC=C1C2=CC(=C(S2)NC(=O)N)C(=O)N)F [TPCA-1] + CS(=O)(=O)CCNCc1ccc(-c2ccc3ncnc(Nc4ccc(OCc5cccc(F)c5)c(Cl)c4)c3c2)o1 [Lapatinib] (partner 2 µM)
The essentials:
as §1

Compound in test [2]: C[C@]12O[C@H](C[C@]1(O)CO)n1c3ccccc3c3c4c(c5c6ccccc6n2c5c31)CNC4=O [Lestaurtinib] + CCNC(=O)c1noc(-c2cc(C(C)C)c(O)cc2O)c1-c1ccc(CN2CCOCC2)cc1 [Luminespib] (partner 0.01 µM)
In a few lines:
as §1

Compound in the test “Lestaurtinib + Foretinib”: C[C@]12O[C@H](C[C@]1(O)CO)n1c3ccccc3c3c4c(c5c6ccccc6n2c5c31)CNC4=O [Lestaurtinib] + COc1cc2c(Oc3ccc(NC(=O)C4(C(=O)Nc5ccc(F)cc5)CC4)cc3F)ccnc2cc1OCCCN1CCOCC1 [Foretinib] (partner 0.25 µM)
The essentials:
as §1

Take UMC-11: the relative viability in test [1] (first compound 0.2 µM) turned out to be 0.474; in test [1] (first compound 0.6325 µM), 0.484; in test [1] (first compound 20 µM), 0.45; in the test with TPCA-1 + Lapatinib (first compound 0.04 µM) it was 1.18; with TPCA-1 + Lapatinib (first compound 0.1265 µM), 0.754; with TPCA-1 + Lapatinib (first compound 0.4 µM), 0.69. In addition, the relative viability with TPCA-1 + Lapatinib (first compound 1.265 µM) was 0.956; with TPCA-1 + Lapatinib (first compound 4 µM), 0.178; in test [2] (first compound 0.005 µM), 0.936; in test [2] (first compound 0.01581 µM), 0.992; in test [2] (first compound 0.05 µM), 0.675; in test [2] (first compound 0.1581 µM) it was 0.286. Besides, the relative viability is 0.164 in test [2] (first compound 0.5 µM); 1.03 in the test with Lestaurtinib + Foretinib (first compound 0.005 µM); 0.891 in the test with Lestaurtinib + Foretinib (first compound 0.01581 µM); 0.46 with Lestaurtinib + Foretinib (first compound 0.05 µM); 0.273 with Lestaurtinib + Foretinib (first compound 0.1581 µM); 0.175 in the test with Lestaurtinib + Foretinib (first compound 0.5 µM).
